{"source": "patent US7947312B2", "about": "“Method of preparation and composition of a water soluble extract of the bioactive component of the plant species Uncaria for enhancing immune, anti-inflammatory, anti-tumor and DNA repair processes of warm blooded animals” (priority 2002, dated 2011)", "key": {"IκBα": {"system": "IκBα", "test": "Western blotting of IκBα and phosphorylated IκBα in LPS-stimulated 70Z/3 cells", "format": "cell-based, mouse", "details": "QA 2 mg/ml or PDTC 100 μM", "procedure": "FIGS. 5C and 5D illustrate 70Z/3 cells (5×10^6) that were pre-treated with QA (2 mg/ml) or with PDTC (100 μM) as a positive control for two hours and thereafter stimulated with LPS (25 μg/ml) for the indicated time. Cytoplasmic extracts equalized for protein concentration were analyzed by western blotting using IκBα-specific antibodies. One representative experiment out of three (FIG. 5C) and one representative experiment out of two (FIG. 5D) are presented.\nPreparation of cell extracts: The 70Z/3 cells were pretreated with QA (1 or 2 mg/ml) or with PDTC for 2 hours before they were stimulated with LPS for various time points. Whole cell extracts from the 70Z/3 cells (1×10^6) were prepared for analysis of the NF-κB signaling pathway. The cells were washed twice in PBS, resuspended in lysis buffer (75 mM Tris-HCl (pH 8.0), 100 mM NaCl, 5 mM KCl, 3 mM MgCl2, 2% NP-40, 1 mM PMSF and a protease inhibitor cocktail) (Roche Diagnostics Scandinavia AB) and incubated on ice for 10 min. The cell debris was pelleted and the supernatants were stored at −70° C. until Western Blot was performed.\nWestern blotting: Cellular extracts from 70Z/3 cells were separated on a 10% SDS polyacrylamide gel and the proteins were transferred to a nylon membrane. After blocking overnight in 5% dry fat-free milk in TBST, the membrane was incubated for 2 hrs with primary antibodies specific either to IκBα or to phosphorylated IκBα (both from Cell Signaling Technology Inc, Beverly, Mass.). The membranes were thereafter washed three times in TBST, and incubated with HRP-conjugated goat anti-rabbit antibodies (Amersham Pharmacia). The membranes were washed three times and chemoluminescence was detected using the ECL-reagent (Amersham Pharmacia) and x-ray film (CEA AB, Strängnäs, Sweden)."}, "Jurkat T cells": {"system": "Jurkat T cells", "test": "Jurkat T cell proliferation (data not shown)", "format": "cell-based, human"}, "C57BL/6 mice": {"system": "C57BL/6 mice", "test": "Mice treated via drinking water for 21 days: spleen cells, blood cells, weights", "format": "in vivo, mouse", "procedure": "Mice were treated with indicated concentrations of QA or C-MED-100® in the drinking water for 21 days, sacrificed and absolute number of spleen cells counted using trypan blue exclusion. The presented data are mean cell numbers±S.D. pooled from five experiments (water, n=21; C-MED-100® 4 mg/ml, n=24; C-MED-100® 8 mg/ml, n=9; QA 1 mg/ml, n=9; QA 2 mg/ml, n=22; QA 4 mg/ml, n=10). Statistically significant differences compared to control mice supplemented with tap water are indicated. […] The data are presented as the mean number of cells/ml±S.D. from five experiments (water, n=21; C-MED-100® 4 mg/ml, n=24; C-MED-100® 8 mg/ml, n=9; QA 1 mg/ml, n=9; QA 2 mg/ml, n=22; QA 4 mg/ml, n=10). Statistically significant differences compared to control mice supplemented with tap water are indicated. Materials and Methods: C57BL/6 females were bought from […], Denmark and used in experiments at an age of 6-10 weeks. The animals were kept in a SPF facility at Lund University, Lund, Sweden. The use of laboratory animals complies with the guidelines of the European Community and was approved of by the local ethical committee. In vivo treatment: Mice were fed with C-MED-100® and QA (Sigma-Aldrich), dissolved in autoclaved tap water at indicated concentrations, for 21 days. The drinking water bottles were changed every third day. The animals were then sacrificed, the spleens removed and blood samples collected. The blood samples were analyzed in a Sysmex KX-21N cytometer (Sysmex Corporation, Kobe, Japan)."}}}
{"smiles": "O=C(O)C1(O)CC(O)C(O)C(O)C1", "note": "(centres unmarked) [QA, 1,3,4,5-tetrahydroxy-cyclohexanecarboxylic acid]", "values": [{"measurement": "phosphorylation of IκBα", "setting": "IκBα", "value": "did not affect the phosphorylation of IκBα"}, {"measurement": "LPS-induced breakdown of IκBα", "setting": "IκBα; 2 h pretreatment", "value": "inhibited the LPS-induced breakdown of IκBα"}, {"measurement": "proliferation of Jurkat T cells", "setting": "Jurkat T cells", "value": "did not inhibit proliferation"}, {"measurement": "number of spleen cells", "setting": "C57BL/6 mice; 2 mg/ml in drinking water, 21 days", "value": "significantly increased number of spleen cells"}, {"measurement": "body weight", "setting": "C57BL/6 mice; 4 mg/ml in drinking water", "value": "significantly reduced"}, {"measurement": "WBC and blood lymphocytes in peripheral blood", "setting": "C57BL/6 mice; 4 mg/ml in drinking water, vs normal control animals", "value": "this increase was significant"}, {"measurement": "absolute numbers of lymphocyte subsets CD4+ T cells, CD8+ T cells and B cells in spleen", "setting": "C57BL/6 mice; drinking water 21 days (FIG. 6B)", "value": "this was also the case"}, {"measurement": "WBC, blood lymphocytes, RBC in peripheral blood", "setting": "C57BL/6 mice; drinking water 21 days, indicated concentrations", "value": "increasing number of WBC and blood lymphocytes"}]}
